Assay: Phase I systemic absorption of rifaximin vaginal tablets in healthy volunteers
Type: in vivo, human
Conditions: single 100 mg vaginal tablet, 30 minutes to 24 hours; LLOQ 0.5 ng/ml
Procedure: The samples were analyzed by liquid chromatography equipped with mass spectrometry detector, with a lower limit of quantization (LLOQ) of rifaximin concentration 0.5 ng/ml.

- rifaximin plasma concentrations: under the analytical detection limit
Structure (SMILES): CO[C@H]1/C=C/O[C@@]2(C)Oc3c(C)c(O)c4c(O)c(c5c(nc6cc(C)ccn65)c4c3C2=O)NC(=O)/C(C)=C\C=C\[C@H](C)[C@H](O)[C@@H](C)[C@@H](O)[C@@H](C)[C@H](OC(C)=O)[C@@H]1C [Rifaximin]
